In publication PMC10511702, “Design, molecular modelling and synthesis of novel benzothiazole derivatives as BCL-2 inhibitors” (Scientific Reports, 2023):

Assays:
recombinant BCL-2 = target: T1, recombinant BCL-2 (Homo sapiens, UniProt P10415); test: In vitro BCL-2 inhibitory activity, TR-FRET assay (BPS Bioscience); type: binding; details: for inhibition at 10 µM / BCL-2 inhibition %: single dose of 10 µM
T1 construct: purchased BPS Bioscience 50272
Method: The in vitro enzyme inhibition determination for the synthesized compounds was carried out in BPS Bioscience Corporation, San Diego, CA, USA (www.bpsbioscience.com). […] The assay was performed by TR-FRET technology using a recombinant BCL-2 and a peptide- ligand substrate. The TR-FRET signal from the assay is correlated with the amount of Ligand binding to BCL-2. […] All of the binding reactions were conducted at room temperature. […] The reaction mixture incubated for 180 min prior to reading the TR-FRET signal. For the background, ligand was replaced with assay buffer. Fluorescence signals for both the donor and acceptor dyes were measured using a Tecan Infinite M1000 plate reader. TR-FRET was recorded as the ratio of the fluorescence of the acceptor and the donor dyes (acceptor/donor). Binding experiments were performed in duplicate at each concentration. The TR-FRET data were analyzed using the computer software, Graphpad Prism. In the absence of the compound in wells containing BCL-2 ligand, the TR-FRET signal (Ft) in each data set was defined as 100% activity. In wells without peptide ligand, the TR-FRET signal (Fb) in each data set was defined as 0% activity. The percent activity in the presence of each compound was calculated according to the following equation: % activity = [(F − Fb)/ (Ft − Fb)] × 100, where F = the TR-FRET signal in the presence of the compound. The percent inhibition was calculated according to the following equation: % inhibition = 100—% activity. IC50 determination for target compounds against BCL-2 was calculated. […] The IC50 value was determined by the concentration causing a half-maximal percent activity.

T1 sequence (P10415 whole entry): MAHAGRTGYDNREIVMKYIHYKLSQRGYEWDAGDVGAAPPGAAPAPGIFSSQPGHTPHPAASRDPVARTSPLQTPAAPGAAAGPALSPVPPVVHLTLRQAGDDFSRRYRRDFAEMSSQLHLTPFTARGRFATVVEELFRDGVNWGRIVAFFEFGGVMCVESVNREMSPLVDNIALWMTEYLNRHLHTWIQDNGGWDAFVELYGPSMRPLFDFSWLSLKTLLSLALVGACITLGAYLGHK

| Compound | inhibition at 10 µM (recombinant BCL-2) | melting point | inhibition at 0.1 µM (recombinant BCL-2; at 100 nM) | BCL-2 inhibition % (recombinant BCL-2) |
| --- | --- | --- | --- | --- |
| O=C(c1ccc2nc(NS(=O)(=O)c3ccc4ccccc4c3)sc2c1)N1CCN(c2ccccc2)CC1 [7a, N-(6-(4-Phenylpiperazine-1-carbonyl)benzo[d]thiazol-2-yl)naphthalene-2-sulfonamide] | 0% | – | – | – |
| O=C(c1ccc2nc(NS(=O)(=O)c3ccc4ccccc4c3)sc2c1)N1CCN(c2ccccc2F)CC1 [7b, N-(6-(4-(2-Fluorophenyl)piperazine-1-carbonyl)benzo[d]thiazol-2-yl)naphthalene-2-sulfonamide] | 0% | 290 to 292 °C | – | – |
| COc1ccccc1N1CCN(C(=O)c2ccc3nc(NS(=O)(=O)c4ccc5ccccc5c4)sc3c2)CC1 [7c, N-(6-(4-(2-Methoxyphenyl)piperazine-1-carbonyl)benzo[d]thiazol-2-yl)naphthalene-2-sulfonamide] | 2% | 258 to 260 °C | – | – |
| O=C(c1ccc2nc(NS(=O)(=O)c3ccc4ccccc4c3)sc2c1)N1CCN(C(c2ccccc2)c2ccccc2)CC1 [7f, N-(6-(4-Benzhydrylpiperazine-1-carbonyl)benzo[d]thiazol-2-yl)naphthalene-2-sulfonamide] | 7% | 200 to 202 °C | – | – |
| O=C(c1ccc2nc(NS(=O)(=O)c3ccc4ccccc4c3)sc2c1)N1CCN(C/C=C/c2ccccc2)CC1 [7g, (E)-N-(6-(4-Cinnamylpiperazine-1-carbonyl)benzo[d]thiazol-2-yl)naphthalene-2-sulfonamide] | 7% | 240 to 242 °C | – | – |
| O=C(c1ccc2nc(NS(=O)(=O)c3ccc4ccccc4c3)sc2c1)N1CCN(Cc2ccc3c(c2)OCO3)CC1 [7h, N-(6-(4-(Benzo[d]dioxol-5-ylmethyl)piperazine-1-carbonyl)benzo[d]thiazol-2-yl)naphthalene-2-sulfonamide] | 1% | 178 to 180 °C | – | – |

Next, values leading:

| inhibition at 10 µM (recombinant BCL-2) | melting point | inhibition at 0.1 µM (recombinant BCL-2; at 100 nM) | BCL-2 inhibition % (recombinant BCL-2) | Compound |
| --- | --- | --- | --- | --- |
| 4% | 230 to 232 °C | – | – | O=C(c1ccc2nc(NS(=O)(=O)c3ccc4ccccc4c3)sc2c1)N1CCN(C(=O)C2CCCO2)CC1 (stereo not shown) [7i, N-(6-(4-(Tetrahydrofuran-2-carbonyl)piperazine-1-carbonyl)benzo[d]thiazol-2-yl)naphthalene-2-sulfonamide] |
| 41% | 146 to 148 °C | – | – | O=C(Nc1ccc(OCc2cccc(F)c2)cc1)c1ccc2nc(NS(=O)(=O)c3ccc4ccccc4c3)sc2c1 [8a, N-(4-((3-Fluorobenzyl)oxy)phenyl)-2-(naphthalene-2-sulfonamido)-benzo[d]thiazole-6-carboxamide] |
| 16% | 198 to 200 °C | – | – | O=C(Nc1ccc(OCc2cccc(Cl)c2)cc1)c1ccc2nc(NS(=O)(=O)c3ccc4ccccc4c3)sc2c1 [8b, N-(4-((3-Chlorobenzyl)oxy)phenyl)-2-(naphthalene-2-sulfonamido)benzo[d]thiazole-6-carboxamide] |
| 48% | 296 to 298 °C | – | – | O=C(Nc1ccc(OCc2ccc(Cl)cc2)cc1)c1ccc2nc(NS(=O)(=O)c3ccc4ccccc4c3)sc2c1 [8c, N-(4-((4-Chlorobenzyl)oxy)phenyl)-2-(naphthalene-2-sulfonamido)benzo[d]thiazole-6-carboxamide] |
| – | – | 92% | – | CC1(C)CCC(CN2CCN(c3ccc(C(=O)NS(=O)(=O)c4ccc(NCC5CCOCC5)c([N+](=O)[O-])c4)c(Oc4cnc5[nH]ccc5c4)c3)CC2)=C(c2ccc(Cl)cc2)C1 [ABT-199 (20), reference compound] |
| – | – | – | 0% | N-(6-(4-(3,4-Dichlorophenyl)piperazine-1-carbonyl)benzo[d]thiazol-2-yl)naphthalene-2-sulfonamide [7e] |
| – | – | – | 8% | N-(6-(4-(4-Chlorophenyl)piperazine-1-carbonyl)benzo[d]thiazol-2-yl)naphthalene-2-sulfonamide [7d] |
